# Source: US9359297B2, “Spirolactam derivatives and uses of same” (H. Lundbeck A/S, priority 2009, dated 2016)
# Target: T1, human metabotropic glutamate receptor 5 (hmGluR5) (Homo sapiens, UniProt P41594)
# T1 construct: expressed in transfected cells
# Assay: Calcium mobilization (FLIPR) assay for negative allosteric modulation, EC80 glutamate, hmGluR5 in HEK 293
# Type: cell-based
# Conditions: HEK293; hmGluR5, inhibition of EC80 glutamate response; read-out: FLIPR maximum inhibition
# Protocol: The cDNA for rat metabotropic glutamate receptor 5 (rmGluR5) and the cDNA for human metabotropic glutamate receptor 5 (hmGluR5) were generous gifts from S. Nakanishi (Kyoto University, Kyoto, Japan). The rmGluR5 or hmGluR5 was stably expressed in a HEK 293 cell line and grown in Dulbecco's Modified Eagle Medium (DMEM) (Invitrogen, Carlsbad, Calif.) with supplements (10% bovine calf serum, 4 mM glutamine, 100 units/mL penicillin, 100 μg/mL streptomycin and 0.75 mM G1418) at 37° C., 5% CO2. Twenty-four hours prior to assay, cells were seeded into 384-well black wall microtiter plates coated with poly-D-lysine. Just prior to assay, media was aspirated and cells dye-loaded (25 μL/well) with 3 μM Fluo-4/0.01% pluronic acid in assay buffer (Hank's Balanced Saline Solution (HBSS)): 150 mM NaCl, 5 mM KCl, 1 mM CaCl2, 1 mM MgCl2, plus 20 mM N-2-Hydroxyethylpiperazine-N′-2-ethanesulfonic acid (HEPES), pH 7.4, 0.1% bovine serum albumin (BSA) and 2.5 mM probenicid) for 1 hour in 5% CO2 at 37° C. After excess dye was discarded, cells were washed in assay buffer and layered with a final volume equal to 30 μL/well. Basal fluorescence is monitored in a fluorometric imaging plate reader (FLIPR) (Molecular Devices, Sunnyvale, Calif.) with an excitation wavelength of 488 nm and an emission range of 500 to 560 nm. Laser excitation energy was adjusted so that basal fluorescence readings were approximately 10,000 relative fluorescent units. Cells were stimulated with an EC20 or an EC80 concentration of glutamate in the presence of a compound to be tested, both diluted in assay buffer, and relative fluorescent units were measured at defined intervals (exposure=0.6 sec) over a 3 min period at room temperature. Basal readings derived from negative controls were subtracted from all samples. Maximum change in fluorescence was calculated for each well. Concentration-response curves derived from the maximum change in fluorescence were analyzed by nonlinear regression (Hill equation). A negative modulator can be identified from these concentration-response curves if a compound produces a concentration dependent inhibition of the EC80 glutamate response.
# T1 sequence (P41594 21-1212): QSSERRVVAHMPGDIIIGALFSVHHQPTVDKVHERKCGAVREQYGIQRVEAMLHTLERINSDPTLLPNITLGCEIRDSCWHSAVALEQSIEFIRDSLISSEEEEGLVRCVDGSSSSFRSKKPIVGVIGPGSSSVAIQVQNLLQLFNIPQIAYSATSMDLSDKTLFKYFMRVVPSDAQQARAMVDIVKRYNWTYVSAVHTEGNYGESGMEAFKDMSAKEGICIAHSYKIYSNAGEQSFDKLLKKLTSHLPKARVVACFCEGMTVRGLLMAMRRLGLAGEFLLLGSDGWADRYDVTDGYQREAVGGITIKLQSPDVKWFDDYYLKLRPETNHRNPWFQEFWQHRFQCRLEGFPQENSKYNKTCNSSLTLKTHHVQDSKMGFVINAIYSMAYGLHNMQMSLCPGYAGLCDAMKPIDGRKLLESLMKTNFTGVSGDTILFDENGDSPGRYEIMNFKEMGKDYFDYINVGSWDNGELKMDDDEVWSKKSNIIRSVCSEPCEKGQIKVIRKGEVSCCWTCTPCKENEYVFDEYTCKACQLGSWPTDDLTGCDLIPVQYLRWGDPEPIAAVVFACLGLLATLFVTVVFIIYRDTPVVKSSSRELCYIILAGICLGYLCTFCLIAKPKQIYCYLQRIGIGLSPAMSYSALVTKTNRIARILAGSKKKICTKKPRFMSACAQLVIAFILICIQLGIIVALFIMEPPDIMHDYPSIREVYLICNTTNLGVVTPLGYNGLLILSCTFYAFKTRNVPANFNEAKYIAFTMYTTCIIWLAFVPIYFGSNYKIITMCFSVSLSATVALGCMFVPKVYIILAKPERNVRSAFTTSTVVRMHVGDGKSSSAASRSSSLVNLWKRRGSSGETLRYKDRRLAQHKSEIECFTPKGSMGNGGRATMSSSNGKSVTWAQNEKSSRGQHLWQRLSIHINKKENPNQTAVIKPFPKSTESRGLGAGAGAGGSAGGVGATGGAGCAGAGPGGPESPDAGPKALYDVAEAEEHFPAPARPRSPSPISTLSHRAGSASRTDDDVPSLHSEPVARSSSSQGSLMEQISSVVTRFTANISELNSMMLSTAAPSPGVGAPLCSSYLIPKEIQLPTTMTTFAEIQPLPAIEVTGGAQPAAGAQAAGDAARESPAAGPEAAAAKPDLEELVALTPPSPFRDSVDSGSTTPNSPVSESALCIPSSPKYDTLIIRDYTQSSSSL
row,Emax,SMILES
1,73 to 95%,"Cc1nccc(C(=O)N[C@H]2CCC[C@]3(CCN(c4cc(F)cc(F)c4)C3=O)C2)n1 (racemic) [Example 76, cis 2-Methyl-pyrimidine-4-carboxylic acid [2-(3,5-difluoro-phenyl)-1-oxo-2-aza-spiro[4.5]dec-7-yl]-amide]"
2,73 to 95%,"Cc1cc(C(=O)N[C@H]2CCC[C@]3(CCN(c4cccc(F)c4)C3=O)C2)ccn1 (racemic) [Example 78, cis-N-[2-(3-Fluoro-phenyl)-1-oxo-2-aza-spiro[4.5]dec-7-yl]-2-methyl-isonicotinamide]"
3,73 to 95%,"Cc1cccc(C(=O)N[C@H]2CCC[C@]3(CCN(c4ccnc(C)n4)C3=O)C2)c1 (racemic) [Example 84, cis-3-Methyl-N-[2-(2-methyl-pyrimidin-4-yl)-1-oxo-2-aza-spiro [4.5]dec-7-yl]-benzamide]"
4,88 to 93%,"O=C(N[C@@H]1CC(F)(F)C[C@@]2(CCN(c3cccc(F)c3)C2=O)C1)c1ccccn1 (racemic) [Example 97, cis-Pyridine-2-carboxylic acid [9,9-difluoro-2-(3-fluoro-phenyl)-1-oxo-2-aza-spiro[4.5]dec-7-yl]-amide]"
5,47 to 93%,"Cc1cccc(C(=O)N[C@@H]2CC(F)(F)C[C@@]3(CCN(c4ccc(F)cn4)C3=O)C2)n1 (racemic) [Example 109, cis-6-Methyl-pyridine-2-carboxylic acid [9,9-difluoro-2-(5-fluoro-pyridin-2-yl)-1-oxo-2-aza-spiro[4.5]dec-7-yl]-amide]"
6,47 to 93%,"O=C(N[C@@H]1CC(F)(F)C[C@@]2(CCN(c3cc(F)cc(F)c3)C2=O)C1)c1ccccn1 (racemic) [Example 110, cis-Pyridine-2-carboxylic acid [2-(3,5-difluoro-phenyl)-9,9-difluoro-1-oxo-2-aza-spiro[4.5]dec-7-yl]-amide]"
7,47 to 93%,"Cc1nccc(N2CC[C@@]3(C[C@@H](NC(=O)c4cccc(F)c4)CC(F)(F)C3)C2=O)n1 (racemic) [Example 128, cis-N-[9,9-Difluoro-2-(2-methyl-pyrimidin-4-yl)-1-oxo-2-aza-spiro[4.5]dec-7-yl]-3-fluoro-benzamide]"
8,47 to 93%,"Cc1nccc(C(=O)N[C@@H]2CC(F)(F)C[C@@]3(CCN(c4cccc(F)c4)C3=O)C2)n1 (racemic) [Example 129, cis-2-Methyl-pyrimidine-4-carboxylic acid [9,9-difluoro-2-(3-fluoro-phenyl)-1-oxo-2-aza-spiro[4.5]dec-7-yl]-amide]"

# The remaining lines, values behind:
row,SMILES,Emax
1,Cc1nccc(N2CC[C@]3(CCC[C@H](NC(=O)c4cccc(Cl)c4)C3)C2=O)n1 (racemic) [Example 58],73 to 95%
2,"Cc1cncc(N2CC[C@]3(CCC[C@H](NC(=O)c4ccnc(C)n4)C3)C2=O)n1 (relative stereo) [Example 59, cis-2-Methyl-pyrimidine-4-carboxylic acid [2-(6-methyl-pyrazin-2-yl)-1-oxo-2-aza-spiro[4.5]dec-7-yl]-amide]",73 to 95%
3,"Cc1nccc(C(=O)N[C@H]2CCC[C@]3(CCN(c4cccc(C#N)c4)C3=O)C2)n1 (relative stereo) [Example 60, cis-2-Methyl-pyrimidine-4-carboxylic acid [2-(3-cyano-phenyl)-1-oxo-2-aza-spiro [4.5]dec-7-yl]-amide]",73 to 95%
4,"Cc1nccc(C(=O)N[C@H]2CCC[C@]3(CCN(c4cccc(C(F)(F)F)n4)C3=O)C2)n1 (relative stereo) [Example 61, cis-2-Methyl-pyrimidine-4-carboxylic acid [1-oxo-2-(6-trifluoromethyl-pyridin-2-yl)-2-aza-spiro[4.5]dec-7-yl]-amide]",73 to 95%
5,"Cc1cccc(C(=O)N[C@H]2CCC[C@]3(CCN(c4ccnc(C)n4)C3=O)C2)n1 (relative stereo) [Example 62, cis-6-methyl-pyridine-2-carboxylic acid [2-(2-methyl-pyrimidin-4-yl)-1-oxo-2-aza-spiro[4.5]dec-7-yl]-amide]",73 to 95%
6,"Cc1ccc(N2CC[C@]3(CCC[C@H](NC(=O)c4cccc(C)n4)C3)C2=O)cn1 (relative stereo) [Example 63, cis-6-Methyl-pyridine-2-carboxylic acid [2-(6-methyl-pyridin-3-yl)-1-oxo-2-aza-spiro[4.5]dec-7-yl]-amide]",73 to 95%
7,"Cc1cccc(C(=O)N[C@H]2CCC[C@]3(CCN(c4cncc(F)c4)C3=O)C2)n1 (relative stereo) [Example 64, cis-6-Methyl-pyridine-2-carboxylic acid [2-(5-fluoro-pyridin-3-yl)-1-oxo-2-aza-spiro[4.5]dec-7-yl]-amide]",73 to 95%
8,"Cc1nccc(N2CC[C@]3(CCC[C@H](NC(=O)c4cccc(F)c4)C3)C2=O)n1 (relative stereo) [Example 65, cis-3-Fluoro-N-[2-(2-methyl-pyrimidin-4-yl)-1-oxo-2-aza-spiro[4.5]dec-7-yl]-benzamide]",73 to 95%
9,"Cc1cc(N2CC[C@]3(CCC[C@H](NC(=O)c4cccc(F)c4)C3)C2=O)ccn1 (relative stereo) [Example 66, cis-3-Fluoro-N-[2-(2-methyl-pyridin-4-yl)-1-oxo-2-aza-spiro[4.5]dec-7-yl]-benzamide]",73 to 95%
10,"O=C(N[C@H]1CCC[C@]2(CCN(c3cccc(F)c3)C2=O)C1)c1ccc(F)cn1 (relative stereo) [Example 68, cis-5-Fluoro-pyridine-2-carboxylic acid [2-(3-fluoro-phenyl)-1-oxo-2-aza-spiro [4.5]dec-7-yl]-amide]",73 to 95%
11,"Cc1nccc(C(=O)N[C@H]2CCC[C@]3(CCN(c4cccc(F)c4)C3=O)C2)n1 (relative stereo) [Example 69, cis-2-Methyl-pyrimidine-4-carboxylic acid [2-(3-fluoro-phenyl)-1-oxo-2-aza-spiro[4.5]dec-7-yl]-amide]",73 to 95%
12,"O=C(N[C@H]1CCC[C@]2(CCN(c3cccc(F)c3)C2=O)C1)c1ccncn1 (relative stereo) [Example 70, cis-Pyrimidine-4-carboxylic acid [2-(3-fluoro-phenyl)-1-oxo-2-aza-spiro [4.5]dec-7-yl]-amide]",73 to 95%
13,"Cc1cncc(N2CC[C@]3(CCC[C@H](NC(=O)c4cccc(C)n4)C3)C2=O)c1 (relative stereo) [Example 71, cis-6-Methyl-pyridine-2-carboxylic acid [2-(5-methyl-pyridin-3-yl)-1-oxo-2-aza-spiro[4.5]dec-7-yl]-amide]",73 to 95%
14,"COc1cccc(N2CC[C@]3(CCC[C@H](NC(=O)c4cccc(C)n4)C3)C2=O)c1 (relative stereo) [Example 72, cis-6-Methyl-pyridine-2-carboxylic acid [2-(3-methoxy-phenyl)-1-oxo-2-aza-spiro[4.5]dec-7-yl]-amide]",73 to 95%
15,"O=C(N[C@H]1CCC[C@]2(CCN(c3cncc(F)c3)C2=O)C1)c1ccccn1 (relative stereo) [Example 74, cis-Pyridine-2-carboxylic acid [2-(5-fluoro-pyridin-3-yl)-1-oxo-2-aza-spiro[4.5]dec-7-yl]-amide]",73 to 95%
16,"O=C(N[C@H]1CCC[C@]2(CCN(c3ccc(F)c(F)c3)C2=O)C1)c1ccccn1 (relative stereo) [Example 75, cis-Pyridine-2-carboxylic acid [2-(3,4-difluoro-phenyl)-1-oxo-2-aza-spiro[4.5]dec-7-yl]-amide]",73 to 95%
